The values below come from ChEMBL document CHEMBL5338775, “Discovery of a Novel Class of PROTACs as Potent and Selective Estrogen Receptor α Degraders to Overcome Endocrine-Resistant Breast Cancer In Vitro and In Vivo” (J Med Chem, 2023).

In data set [1] the target is T1, Estrogen receptor beta (Homo sapiens, UniProt Q92731). Briefly: Binding affinity to ERbeta (unknown origin) assessed as relative binding affinity incubated for 2 hrs by fluorescence polarization assay relative to estradiol.
The subject of a further data set is MCF7. The experiment in a line: cells. The settings on record: Homo sapiens, MCF7, 72 h.
Data set [2] concerns T47D. The experiment in a line: cells. The following applies: Homo sapiens, 72 h.
Data set [3] has as its target T1, Estrogen receptor beta.
A short description of data set [4]: Selectivity ratio of relative binding affinity for ERalpha (unknown origin) to relative binding affinity to ERbeta (unknown origin).
A short description of another data set: in vitro. The following applies: human, MCF-10A cells.
The subject of another data set is MDA-MB-231. The experiment in a line: cells. The following applies: Homo sapiens, MDA-MB-231, 72 h.
Data set [5] concerns T47D. Briefly: cells. The settings on record: Homo sapiens, 72 h. The source holds these as a separate data set.
In data set [6] the test system is T47D. Briefly: cells. The settings on record: Homo sapiens, 72 h. This is another data set of the same source.
Data set [7] concerns the target T2, von Hippel-Lindau disease tumor suppressor/Estrogen receptor (Homo sapiens) (UniProt P03372+P40337). The experiment in a line: PROTAC activity at VHL/wild type ERalpha in ER-positive human MCF7 cells assessed as induction of ERalpha degradation at 1 uM incubated for 12 hrs by Western blot analysis. It counts as cell-based. (In general: Immunoblotting shows a protein as a band on a membrane.)

Data set [8] can be described thus: Selectivity index, ratio of Ki for ERalpha (unknown origin) to Ki for ERbeta (unknown origin).
The target in a further data set is T3, Estrogen receptor (Homo sapiens, UniProt P03372).
T3 sequence (P03372 whole entry): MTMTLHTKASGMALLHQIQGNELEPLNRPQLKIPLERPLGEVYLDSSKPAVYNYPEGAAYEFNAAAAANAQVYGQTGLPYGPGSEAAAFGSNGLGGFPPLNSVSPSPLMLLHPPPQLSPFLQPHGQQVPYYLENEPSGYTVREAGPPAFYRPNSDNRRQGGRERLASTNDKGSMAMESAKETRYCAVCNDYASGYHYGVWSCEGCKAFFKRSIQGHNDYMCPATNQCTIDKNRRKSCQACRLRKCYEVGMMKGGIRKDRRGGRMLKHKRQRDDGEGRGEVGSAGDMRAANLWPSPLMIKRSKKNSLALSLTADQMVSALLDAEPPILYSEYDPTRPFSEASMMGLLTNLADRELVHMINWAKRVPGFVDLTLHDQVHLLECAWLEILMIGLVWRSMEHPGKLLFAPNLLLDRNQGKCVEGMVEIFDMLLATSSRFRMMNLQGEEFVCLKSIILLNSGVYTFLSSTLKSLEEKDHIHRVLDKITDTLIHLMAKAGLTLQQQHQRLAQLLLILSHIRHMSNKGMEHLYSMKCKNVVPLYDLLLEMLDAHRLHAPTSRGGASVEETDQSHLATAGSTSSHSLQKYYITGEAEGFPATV

The next data set is described as follows: cells. The settings on record: Homo sapiens, Tamoxifen-resistant LCC2 cell, 72 h.
Data set [9] has as its target T2, von Hippel-Lindau disease tumor suppressor/Estrogen receptor (Homo sapiens). Briefly: PROTAC activity at VHL/wild type ERalpha in ER-positive human T47D cells assessed as induction of ERalpha degradation at 2 uM incubated for 12 hrs by Western blot analysis. It counts as cell-based.
The target is the same in data set [10]. Briefly: PROTAC activity at VHL/ERalpha in ER-positive human tamoxifen-resistant LCC2 cells assessed as induction of ERalpha degradation at 2 uM incubated for 12 hrs by Western blot analysis. It counts as cell-based. The following applies: tamoxifen-resistant LCC2 cell.
In data set [11] the target is Protein cereblon/Estrogen receptor (Homo sapiens) (UniProt P03372+Q96SW2). The experiment in a line: PROTAC activity at CRBN/wild type ERalpha in ER-positive human MCF7 cells assessed as induction of ERalpha degradation at 1 uM incubated for 12 hrs by Western blot analysis. It counts as cell-based.

Active and inactive are the calls of the source. The rule behind the calls is not given here.

T2 sequence (P40337 whole entry, looked up, one chain of several): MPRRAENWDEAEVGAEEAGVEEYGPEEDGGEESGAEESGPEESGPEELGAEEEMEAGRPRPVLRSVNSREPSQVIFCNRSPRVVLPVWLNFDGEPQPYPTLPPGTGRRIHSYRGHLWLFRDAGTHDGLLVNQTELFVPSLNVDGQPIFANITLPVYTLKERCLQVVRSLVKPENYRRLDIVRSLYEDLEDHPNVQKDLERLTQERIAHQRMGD
T1 sequence (Q92731 whole entry): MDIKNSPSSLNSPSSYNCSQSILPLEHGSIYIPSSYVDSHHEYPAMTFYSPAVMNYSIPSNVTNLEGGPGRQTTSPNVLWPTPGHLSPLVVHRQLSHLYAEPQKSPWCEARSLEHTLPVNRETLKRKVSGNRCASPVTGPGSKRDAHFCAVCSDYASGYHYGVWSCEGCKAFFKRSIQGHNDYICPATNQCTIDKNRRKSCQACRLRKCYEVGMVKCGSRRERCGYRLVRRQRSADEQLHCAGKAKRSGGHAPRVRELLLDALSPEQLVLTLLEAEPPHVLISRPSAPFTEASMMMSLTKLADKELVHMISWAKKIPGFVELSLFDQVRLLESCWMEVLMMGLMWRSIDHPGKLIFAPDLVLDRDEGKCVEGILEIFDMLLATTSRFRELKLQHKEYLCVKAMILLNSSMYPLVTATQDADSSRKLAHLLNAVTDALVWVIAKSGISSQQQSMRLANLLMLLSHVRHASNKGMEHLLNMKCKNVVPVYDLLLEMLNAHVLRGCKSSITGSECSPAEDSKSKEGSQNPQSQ
Chain of Protein cereblon/Estrogen receptor (Homo sapiens) (Q96SW2 whole entry, looked up, one chain of several): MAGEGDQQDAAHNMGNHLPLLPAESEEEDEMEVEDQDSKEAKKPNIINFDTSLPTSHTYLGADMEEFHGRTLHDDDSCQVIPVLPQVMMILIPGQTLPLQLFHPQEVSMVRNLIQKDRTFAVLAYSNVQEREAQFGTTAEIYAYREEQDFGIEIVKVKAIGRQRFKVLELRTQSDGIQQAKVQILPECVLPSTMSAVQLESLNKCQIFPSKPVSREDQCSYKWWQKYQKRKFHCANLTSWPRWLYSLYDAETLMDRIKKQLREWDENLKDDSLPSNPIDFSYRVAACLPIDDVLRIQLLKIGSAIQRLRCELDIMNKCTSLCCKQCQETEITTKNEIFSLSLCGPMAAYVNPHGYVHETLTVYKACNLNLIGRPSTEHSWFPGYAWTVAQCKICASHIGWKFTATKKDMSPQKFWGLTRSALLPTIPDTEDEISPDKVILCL

A word on the IC50: it is the concentration needed to halve the response being measured. A higher IC50 goes with lower potency. For orientation: Ki means a dissociation constant, usually derived from enzyme kinetics or from competition with a known ligand. Regarding `COc1ccc(N(CC(F)(F)F)S(=O)(=O)C2CC3OC2C(c2ccc(OCCCCCC(=O)N[C@H](C(=O)N4C[C@H](O)C[C@H]4C(=O)NCc4ccc(-c5scnc5C)cc4)C(C)(C)C)cc2)=C3c2ccc(O)cc2)cc1` (some centres not stated), the RBA at Estrogen receptor beta [1] came out at 0.07%. The IC50 in the data set on MCF7 was > 10 µM; in the data set on T47D [2] it was > 30 µM; in the data set on MDA-MB-231, > 100 µM; in the data set with T47D [5], > 30 µM; with T47D [6], > 30 µM; in “cells”, > 30 µM. Further, the Ki at Estrogen receptor beta [3] amounted to 11.2 µM; at Estrogen receptor, 1.85 µM. For the same molecule, in data set [4], the Selectivity ratio was 1.57. In addition, the IC50 at 72 h in the data set “in vitro” is > 100 µM. Moreover, in data set [7], the outcome was inactive. Besides, the Ratio Ki in [8] came to 6.08.
For the molecule `CCN(c1ccc(OCCCCCC(=O)N[C@H](C(=O)N2C[C@H](O)C[C@H]2C(=O)NCc2ccc(-c3scnc3C)cc2)C(C)(C)C)cc1)S(=O)(=O)C1CC2OC1C(c1ccc(O)cc1)=C2c1ccc(O)cc1` (some centres not stated), the RBA on Estrogen receptor beta [1] is 0.08%. In addition, the outcome in [9], in [10] and in data set [7] was Active. Moreover, the IC50 is 1.61 µM in the data set with MCF7; 0.76 µM in the data set with T47D [2]; > 100 µM with MDA-MB-231; 0.73 µM with T47D [5]; 1.78 µM in the data set on T47D [6]; 14.2 µM in “cells”. Moreover, the inhibition constant Ki was found to be 9.83 µM at Estrogen receptor beta [3] and 1.85 µM on Estrogen receptor. For the same molecule, the Selectivity ratio in [4] came to 1.38. In addition, inhibition in “in vitro” was half-maximal at 5.17 µM (IC50 at 72 h). In addition, the Ratio Ki in [8] was 5.32.
For `COc1ccc(N(CC(F)(F)F)S(=O)(=O)C2CC3OC2C(c2ccc(OCCCCCC(=O)N[C@H](C(=O)N4C[C@H](O)C[C@H]4C(=O)N[C@@H](C)c4ccc(-c5scnc5C)cc4)C(C)(C)C)cc2)=C3c2ccc(O)cc2)cc1` (some centres not stated), the RBA at Estrogen receptor beta [1] was found to be 0.03%. Moreover, the IC50 is > 10 µM in the data set with MCF7; > 30 µM in the data set on T47D [2]; > 100 µM in the data set with MDA-MB-231; > 30 µM in the data set on T47D [5]; > 30 µM in the data set on T47D [6]; > 30 µM in “cells”. The Ki at Estrogen receptor beta [3] came to 26.2 µM; on Estrogen receptor it was 2.54 µM. For the same molecule, the Selectivity ratio in data set [4] worked out at 2.67. Further, the IC50 at 72 h in “in vitro” is > 100 µM. In addition, in data set [7], the result was inactive. Moreover, the Ratio Ki in [8] is 10.3.
With `O=C(COc1cccc2c1C(=O)N(C1CCC(=O)NC1=O)C2=O)NCCCCOc1ccc(N(CC(F)(F)F)S(=O)(=O)C2CC3OC2C(c2ccc(O)cc2)=C3c2ccc(O)cc2)cc1` (configuration not stated), at Estrogen receptor beta [1], the RBA is 0.07%. Further, the IC50 was > 50 µM in the data set with MCF7; > 50 µM in the data set on T47D [2]; > 100 µM with MDA-MB-231; > 50 µM in the data set with T47D [5]; > 50 µM in the data set on T47D [6]; > 50 µM in “cells”. Besides, the values for the Ki on Estrogen receptor beta [3] and on Estrogen receptor were 11.2 µM and 3.38 µM, respectively. Moreover, the Selectivity ratio in [4] came to 0.86. In addition, the IC50 at 72 h in the data set “in vitro” is > 100 µM. For the same molecule, the outcome in [11] was inactive. Also, in [8], the Ratio Ki came out at 3.32.
As to `CCN(c1ccc(OCCCCCC(=O)Nc2cccc3c2C(=O)N(C2CCC(=O)NC2=O)C3=O)cc1)S(=O)(=O)C1CC2OC1C(c1ccc(O)cc1)=C2c1ccc(O)cc1` (configuration not stated), the RBA on Estrogen receptor beta [1] was 0.18%. Further, the IC50 with MCF7, in the data set on T47D [2], in the data set on MDA-MB-231, in the data set with T47D [5], with T47D [6] and in “cells” was > 100 µM each time. Moreover, the Ki on Estrogen receptor beta [3] turned out to be 4.37 µM; at Estrogen receptor, 0.97 µM. Moreover, the Selectivity ratio in data set [4] is 1.17. Besides, the IC50 at 72 h in the data set “in vitro” is > 100 µM. The result in [11] was inactive. In addition, the Ratio Ki in data set [8] came to 4.52.
